Reference: patent US8722849B2, “Polypeptides” (Novo Nordisk A/S, priority 2011, dated 2014)
Starred links: 1 amine or outer side, 2 acyl side, 3 side chain; linkers in the order of their positions; H or OH if unused. Positions of bridges follow the written chain, without caps; N, C: chain ends. Residues, ends and D or L forms follow the SMILES beside them. *: point of attachment. C20 diacid = O=C(O)CCCCCCCCCCCCCCCCCCC(=O)*; C18 diacid = O=C(O)CCCCCCCCCCCCCCCCC(=O)*; γGlu = O=C(O)[C@H](CCC(=O)[*:2])N[*:1]

What follows are molecules tested against T1, human amylin receptor (amylin 3(a) receptor: human calcitonin receptor + RAMP-3) (Homo sapiens, UniProt O60896+P30988) (assay: Assay (II)a functional CRE-luciferase assay, human amylin receptor). Settings: Table 2; BHK amylin 3(a)-receptor/CRE-luc cells.
T1 construct: expressed in transfected cells; host or cells: BHK570
T1 sequence (P30988 25-474): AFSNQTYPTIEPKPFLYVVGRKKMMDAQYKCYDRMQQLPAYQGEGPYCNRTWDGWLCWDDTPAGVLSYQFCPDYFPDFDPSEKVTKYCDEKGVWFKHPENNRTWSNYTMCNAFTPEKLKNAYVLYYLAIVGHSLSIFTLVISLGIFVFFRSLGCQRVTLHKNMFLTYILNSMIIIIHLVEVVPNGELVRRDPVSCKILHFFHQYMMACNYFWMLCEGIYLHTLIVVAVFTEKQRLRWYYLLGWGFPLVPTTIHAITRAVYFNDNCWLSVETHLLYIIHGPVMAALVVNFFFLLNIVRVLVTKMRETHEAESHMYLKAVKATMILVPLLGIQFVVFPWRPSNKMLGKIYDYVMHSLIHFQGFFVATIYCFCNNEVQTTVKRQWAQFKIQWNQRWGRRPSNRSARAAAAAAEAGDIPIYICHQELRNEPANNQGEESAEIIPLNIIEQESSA
T1 sequence (O60896 24-148 partner): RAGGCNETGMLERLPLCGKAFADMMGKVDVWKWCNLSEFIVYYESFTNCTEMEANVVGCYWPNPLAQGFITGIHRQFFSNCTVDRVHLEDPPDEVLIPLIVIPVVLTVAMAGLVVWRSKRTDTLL
Assay type: cell-based

Row | SMILES | EC50 [nM]
1 | CC[C@H](C)[C@H](NC(=O)[C@@H]1CCCN1C(=O)CNC(=O)[C@H](Cc1ccccc1)NC(=O)[C@H](CC(N)=O)NC(=O)[C@H](CC(N)=O)NC(=O)[C@H](CO)NC(=O)[C@H](CO)NC(=O)[C@H](Cc1c[nH]cn1)NC(=O)[C@H](CCCNC(=N)N)NC(=O)[C@H](CC(C)C)NC(=O)[C@H](Cc1ccccc1)NC(=O)[C@H](CCC(=O)O)NC(=O)[C@H](C)NC(=O)[C@H](CC(C)C)NC(=O)[C@H](CCCNC(=N)N)NC(=O)[C@H](CCC(N)=O)NC(=O)[C@@H](NC(=O)[C@H](C)NC(=O)[C@@H]1CSSC[C@H](NC(=O)[C@H](CCCCN)NC(=O)[C@H](CCC(=O)O)NC(=O)CC[C@H](NC(=O)CCCCCCCCCCCCCCCCC(=O)O)C(=O)O)C(=O)N[C@@H](CC(N)=O)C(=O)N[C@@H]([C@@H](C)O)C(=O)N[C@@H](C)C(=O)N[C@@H]([C@@H](C)O)C(=O)N1)[C@@H](C)O)C(=O)N[C@@H](CC(C)C)C(=O)N1CCC[C@H]1C(=O)N1CCC[C@H]1C(=O)N[C@H](C(=O)N[C@@H](CC(N)=O)C(=O)N[C@H](C(=O)NCC(=O)N[C@@H](CO)C(=O)N[C@@H](Cc1c[nH]cn1)C(=O)N[C@H](C(=O)N[C@@H](Cc1ccc(O)cc1)C(N)=O)[C@@H](C)O)C(C)C)[C@@H](C)O [Example 62, N-alpha-[(S)-4-Carboxy-4-(17-carboxyheptadecanoylamino)butyryl]-Glu-[Glu14,Arg17,His35]-pramlintide] ({C18 diacid-γGlu}-EKCNTATCATQRLAEFLRHSSNNFGPILPPTNVGSHTY-NH2; disulfide 3-8 (inferred); C-terminus assumed) | 0.172
2 | CC(C)C[C@H](NC(=O)[C@H](CCCNC(=N)N)NC(=O)[C@H](CCC(N)=O)NC(=O)[C@@H](NC(=O)[C@H](C)NC(=O)[C@@H]1CSSC[C@H](NC(=O)[C@H](CCCCN)NC(=O)CC[C@H](NC(=O)CCCCCCCCCCCCCCCCCCC(=O)O)C(=O)O)C(=O)N[C@@H](CC(N)=O)C(=O)N[C@@H]([C@@H](C)O)C(=O)N[C@@H](C)C(=O)N[C@@H]([C@@H](C)O)C(=O)N1)[C@@H](C)O)C(=O)N[C@@H](C)C(=O)N[C@@H](CCC(=O)O)C(=O)N[C@@H](Cc1ccccc1)C(=O)N[C@@H](CC(C)C)C(=O)N[C@@H](CCCNC(=N)N)C(=O)N[C@@H](Cc1c[nH]cn1)C(=O)N[C@@H](CO)C(=O)N[C@@H](CO)C(=O)N[C@@H](CC(N)=O)C(=O)N[C@@H](CC(N)=O)C(=O)N[C@@H](Cc1ccccc1)C(=O)NCC(=O)N[C@@H](C)C(=O)N1CCC[C@H]1C(=O)N[C@@H](CC(C)C)C(=O)N[C@@H](CO)C(=O)N[C@@H](CO)C(=O)N[C@H](C(=O)N[C@@H](CC(N)=O)C(=O)N[C@H](C(=O)NCC(=O)N[C@@H](CO)C(=O)N[C@@H](Cc1c[nH]cn1)C(=O)N[C@H](C(=O)N[C@@H](Cc1ccc(O)cc1)C(N)=O)[C@@H](C)O)C(C)C)[C@@H](C)O [Example 65, N-alpha-[(S)-4-Carboxy-4-(19-carboxynonadecanoylamino)butyryl]-[Glu14,Arg17,Ala25,Pro26,Ser28,Ser29,His35]-pramlintide] ({C20 diacid-γGlu}-KCNTATCATQRLAEFLRHSSNNFGAPLSSTNVGSHTY-NH2; disulfide 2-7 (inferred); C-terminus assumed) | 0.217
3 | CC[C@H](C)[C@H](NC(=O)[C@@H]1CCCN1C(=O)CNC(=O)[C@H](Cc1ccccc1)NC(=O)[C@H](CC(N)=O)NC(=O)[C@H](CC(N)=O)NC(=O)[C@H](CO)NC(=O)[C@H](CO)NC(=O)[C@H](Cc1c[nH]cn1)NC(=O)[C@H](Cc1c[nH]cn1)NC(=O)[C@H](CC(C)C)NC(=O)[C@H](Cc1ccccc1)NC(=O)[C@H](CCC(=O)O)NC(=O)[C@H](C)NC(=O)[C@H](CC(C)C)NC(=O)[C@H](CCCNC(=N)N)NC(=O)[C@H](CCC(N)=O)NC(=O)[C@@H](NC(=O)[C@H](C)NC(=O)[C@@H]1CSSC[C@H](NC(=O)[C@H](CCCCN)NC(=O)[C@H](Cc2c[nH]cn2)NC(=O)CC[C@H](NC(=O)CCCCCCCCCCCCCCCCCCC(=O)O)C(=O)O)C(=O)N[C@@H](CC(N)=O)C(=O)N[C@@H]([C@@H](C)O)C(=O)N[C@@H](C)C(=O)N[C@@H]([C@@H](C)O)C(=O)N1)[C@@H](C)O)C(=O)N[C@@H](CC(C)C)C(=O)N1CCC[C@H]1C(=O)N1CCC[C@H]1C(=O)N[C@H](C(=O)N[C@@H](CC(N)=O)C(=O)N[C@H](C(=O)NCC(=O)N[C@@H](CO)C(=O)N[C@@H](Cc1c[nH]cn1)C(=O)N[C@H](C(=O)N[C@@H](Cc1ccc(O)cc1)C(N)=O)[C@@H](C)O)C(C)C)[C@@H](C)O [Example 66, N-alpha-[(S)-4-Carboxy-4-(19-carboxynonadecanoylamino)butyryl]-His-[Glu14,His17,His35]-pramlintide] ({C20 diacid-γGlu}-HKCNTATCATQRLAEFLHHSSNNFGPILPPTNVGSHTY-NH2; disulfide 3-8 (inferred); C-terminus assumed) | 0.182
4 | CC[C@H](C)[C@H](NC(=O)[C@@H]1CCCN1C(=O)CNC(=O)[C@H](Cc1ccccc1)NC(=O)[C@H](CC(N)=O)NC(=O)[C@H](CC(N)=O)NC(=O)[C@H](CO)NC(=O)[C@H](CO)NC(=O)[C@H](Cc1c[nH]cn1)NC(=O)[C@H](Cc1c[nH]cn1)NC(=O)[C@H](CC(C)C)NC(=O)[C@H](Cc1ccccc1)NC(=O)[C@H](CCC(=O)O)NC(=O)[C@H](C)NC(=O)[C@H](CC(C)C)NC(=O)[C@H](CCCNC(=N)N)NC(=O)[C@H](CCC(N)=O)NC(=O)[C@@H](NC(=O)[C@H](C)NC(=O)[C@@H]1CSSC[C@H](NC(=O)[C@H](Cc2c[nH]cn2)NC(=O)CC[C@H](NC(=O)CCCCCCCCCCCCCCCCCCC(=O)O)C(=O)O)C(=O)N[C@@H](CC(N)=O)C(=O)N[C@@H]([C@@H](C)O)C(=O)N[C@@H](C)C(=O)N[C@@H]([C@@H](C)O)C(=O)N1)[C@@H](C)O)C(=O)N[C@@H](CC(C)C)C(=O)N1CCC[C@H]1C(=O)N1CCC[C@H]1C(=O)N[C@H](C(=O)N[C@@H](CC(N)=O)C(=O)N[C@H](C(=O)NCC(=O)N[C@@H](CO)C(=O)N[C@@H](Cc1c[nH]cn1)C(=O)N[C@H](C(=O)N[C@@H](Cc1ccc(O)cc1)C(N)=O)[C@@H](C)O)C(C)C)[C@@H](C)O [Example 76, N-alpha-[(S)-4-Carboxy-4-(19-carboxynonadecanoylamino)butyryl]-[His1,Glu14,His17,His35]-pramlintide] ({C20 diacid-γGlu}-HCNTATCATQRLAEFLHHSSNNFGPILPPTNVGSHTY-NH2; disulfide 2-7 (inferred); C-terminus assumed) | 0.121
5 | CC[C@H](C)[C@H](NC(=O)[C@@H]1CCCN1C(=O)CNC(=O)[C@H](Cc1ccccc1)NC(=O)[C@H](CC(N)=O)NC(=O)[C@H](CC(N)=O)NC(=O)[C@H](CO)NC(=O)[C@H](CO)NC(=O)[C@H](Cc1c[nH]cn1)NC(=O)[C@H](CCCNC(=N)N)NC(=O)[C@H](CC(C)C)NC(=O)[C@H](Cc1ccccc1)NC(=O)[C@H](CCC(=O)O)NC(=O)[C@H](C)NC(=O)[C@H](CC(C)C)NC(=O)[C@H](CCCNC(=N)N)NC(=O)[C@H](CCC(N)=O)NC(=O)[C@@H](NC(=O)[C@H](C)NC(=O)[C@@H]1CSSC[C@H](NC(=O)CNC(=O)CC[C@H](NC(=O)CCCCCCCCCCCCCCCCCCC(=O)O)C(=O)O)C(=O)N[C@@H](CC(N)=O)C(=O)N[C@@H]([C@@H](C)O)C(=O)N[C@@H](C)C(=O)N[C@@H]([C@@H](C)O)C(=O)N1)[C@@H](C)O)C(=O)N[C@@H](CC(C)C)C(=O)N1CCC[C@H]1C(=O)N1CCC[C@H]1C(=O)N[C@H](C(=O)N[C@@H](CC(N)=O)C(=O)N[C@H](C(=O)NCC(=O)N[C@@H](CO)C(=O)N[C@@H](CC(N)=O)C(=O)N[C@H](C(=O)N1CCC[C@H]1C(N)=O)[C@@H](C)O)C(C)C)[C@@H](C)O [Example 88, N-alpha-[(S)-4-Carboxy-4-(19-carboxynonadecanoylamino)butyryl]-[Gly1,Glu14,Arg17,Pro37]-pramlintide] ({C20 diacid-γGlu}-GCNTATCATQRLAEFLRHSSNNFGPILPPTNVGSNTP-NH2; disulfide 2-7 (inferred); C-terminus assumed) | 0.036
6 | CC[C@H](C)[C@H](NC(=O)[C@@H]1CCCN1C(=O)CNC(=O)[C@H](Cc1ccccc1)NC(=O)[C@H](CC(N)=O)NC(=O)[C@H](CC(N)=O)NC(=O)[C@H](CO)NC(=O)[C@H](CO)NC(=O)[C@H](Cc1c[nH]cn1)NC(=O)[C@H](CCCNC(=N)N)NC(=O)[C@H](CC(C)C)NC(=O)[C@H](Cc1ccccc1)NC(=O)[C@H](CCC(=O)O)NC(=O)[C@H](C)NC(=O)[C@H](CC(C)C)NC(=O)[C@H](CCCNC(=N)N)NC(=O)[C@H](CCC(N)=O)NC(=O)[C@@H](NC(=O)[C@H](C)NC(=O)[C@@H]1CSSC[C@H](NC(=O)[C@H](Cc2c[nH]cn2)NC(=O)CC[C@H](NC(=O)CCCCCCCCCCCCCCCCCCC(=O)O)C(=O)O)C(=O)N[C@@H](CC(N)=O)C(=O)N[C@@H]([C@@H](C)O)C(=O)N[C@@H](C)C(=O)N[C@@H]([C@@H](C)O)C(=O)N1)[C@@H](C)O)C(=O)N[C@@H](CC(C)C)C(=O)N1CCC[C@H]1C(=O)N1CCC[C@H]1C(=O)N[C@H](C(=O)N[C@@H](CC(N)=O)C(=O)N[C@H](C(=O)NCC(=O)N[C@@H](CO)C(=O)N[C@@H](CC(N)=O)C(=O)N[C@H](C(=O)N1CCC[C@H]1C(N)=O)[C@@H](C)O)C(C)C)[C@@H](C)O [Example 90, N-alpha-[(S)-4-Carboxy-4-(19-carboxynonadecanoylamino)butyryl]-[His1,Glu14,Arg17,Pro37]-pramlintide] ({C20 diacid-γGlu}-HCNTATCATQRLAEFLRHSSNNFGPILPPTNVGSNTP-NH2; disulfide 2-7 (inferred); C-terminus assumed) | 0.0325
